The structures appear in SMILES notation.

Consider 91 compounds from a melting point compilation (Tetko et al.; mined from patent text by program, amines drawn as free bases though some values may be those of a salt).

In the case of `COc1ccc(CCNC(=O)[C@@H](O)CO)cc1OC1CCCC1`, the melting point was in the range of 54 to 55 °C. `O=C1CC(c2ccc(Cl)c(Cl)c2)Cc2[nH]c3ccc(Cl)cc3c(=O)c21` (stereo unspecified) gave a melting point of more than 325 °C.

On to `COC(=O)c1ncn2c1CN(C)C(=O)c1sccc1-2`, for which the melting point lay within 244 to 245 °C. For `C=CC[C@H]1CCC[C@H](N2C(=O)c3ccccc3C2=O)C(=O)N1CC(=O)OC` the value was 107 to 109 °C; for `CNc1ncnc2c1nnn2Cc1ccccc1F`, 180 to 182 °C; for `Cc1c(C=O)c2c(c(C)c1NC(=O)NC(C)(C)C)C(c1ccc(C(C)C)cc1)CO2` (single isomer, unassigned; (-)), 209 to 210 °C. In the case of `CCCCCNS(N)(=O)=O` it was 60 to 63 °C; in that of `COc1ccc2nc(C)c(CCCl)c(=O)n2c1`, 150 °C; in that of `CC(=O)Nc1c(C(=O)c2cccnc2)[nH]c2cc(Cl)ccc12`, 213 to 214 °C.

In the case of `CC(=O)N1CCN=C1Nc1cc(C)nn1-c1cccc2ccccc12`, the melting point lay within 194 to 195 °C. `CC(C)(C)CCNC(=O)CN1C(=O)C2(COc3cc4c(cc32)CCO4)c2ccccc21` (stereo unspecified) displayed a melting point of 161 to 163 °C. Compound `O=C1CCc2ccc(C(F)(F)F)cc2CC1` showed a melting point of 78 °C. For `CC(C)(C)OC(=O)NCC(O)c1ccccc1` (stereo unspecified) the value was 123 to 124 °C.

Take `Cn1nnc2c(N)cc3nc(O)c(O)nc3c21`: the melting point was more than 300 °C. In the case of `COc1cc2nc(N3CCc4c(CN5CCOCC5)cccc4C3)[nH]c(=O)c2cc1OC` it was 228 to 230 °C; in that of `COC(=O)CS(=O)(=O)CCCC=C1SC=CS1`, 85 to 86 °C; in that of `O=C(O)CCc1ccc(C(c2cc(F)ccc2F)S(=O)(=O)c2ccc(Cl)cc2)nc1` (stereo unspecified), 158 to 160 °C.

With `CCCCOc1ccc(-c2ccc3c(c2)C=C(C(=O)Nc2ccc(CN(C)C4CCOCC4)cc2)CCS3(=O)=O)cc1`, the melting point is 233 to 236 °C. In turn, `Cn1nnnc1-n1cc(C(=O)O)c(=O)c2cc(F)c(Cl)nc21` yielded a melting point of 213 to 220 °C.

Compound `CCN(CC)c1nc(NC(N)=NOC)nc(OC)n1` registered a melting point of 112 °C. In the case of `Cc1noc(NS(=O)(=O)c2ccccc2-c2ccc(-c3ncco3)cc2CNC=O)c1C` it was 105 to 109 °C; in that of `COC(=O)c1cc2c(Nc3ccc4[nH]ccc4c3C)c(C#N)cnc2s1`, 255 °C; in that of `O=S(=O)(Nc1cnc(Oc2cc3ccccc3cn2)c(Cl)c1)c1ccc(Cl)cc1Cl`, 203 to 205 °C. In the case of `Cc1cn(-c2ccc(S(N)(=O)=O)c(F)c2)c(-c2ccc(-c3cscn3)cc2)n1` it was 145 to 147 °C. In the case of `CC(C)OC(=O)C(C(=O)O)=C1SCCS1` it was 104 to 106 °C.

The compound `CCOc1ccc(C(=O)CCC(=O)OC)cc1OCC` displayed a melting point of 84 to 85 °C. In the case of `COc1c(SC)ccc(C(=O)C(C#N)C(=O)C2CC2)c1Br` (stereo unspecified) it was 128 to 129 °C; in that of `CCCc1c(O)ccc2c1OC(C(=O)OC)CC2` (stereo unspecified), 51 to 53 °C; in that of `N#CCSc1nc(Cl)cc(-c2ccccc2)n1`, 136 to 141 °C. `O=C1C(O)OC=CN1Cc1ccccc1` (stereo unspecified) gave a melting point of 134 °C. In the case of `Fc1cccc(F)c1-c1ncc(C=Cc2ccc(Cl)cc2)nn1` it was 135 to 140 °C; in that of `CC(=O)CC(=O)OC(C)N=C(O)c1cc(C(=N)O)c(C(=O)O)cc1C(=O)O` (stereo unspecified), 161 to 163 °C. As for `c1ccc(COc2ccc(-c3nnn[nH]3)cc2)cc1`, the melting point was 228 °C. In the case of `CCN(CC)c1ccc2c(c1)Cc1c-2[nH]c2ccccc12` it was 204 to 206 °C; in that of `COc1ccc(-c2nc(SCCO)sc2-c2ccc(OC)cc2)cc1`, 83 to 84 °C. In the case of `CC(=O)Nc1ccc(S(=O)(=O)Nc2nnc(CC(=O)O)s2)cc1` it was 206 to 207 °C; in that of `CCCc1c2c(c(O)c3c(=O)cc(C(=O)O)oc13)CCCC2`, 260 to 262 °C; in that of `O=C(NCCSCc1ccccc1)c1cnccc1C(F)(F)F`, 86 to 88 °C. For the compound `COc1cc2cn(-c3c(C)c(C)c4c(c3C)C(c3ccc(C)cc3)C(C)(C)O4)cc2cc1OC` (stereo unspecified), the melting point is 146 to 147 °C. In the case of `O=C(O)COc1ccc(CCCS(=O)(=O)c2ccc(Cl)cc2)cc1` it was 159 to 160 °C; in that of `COc1ccc(Cl)cc1N1C(=O)CN(C)C1=S`, 245 to 247 °C; in that of `CCCN(CCC)Cc1cnc(-c2ncn3c2[C@@H]2CCN2C(=O)c2ccccc2-3)o1`, 132 to 134 °C.

For `Cn1ncc(S(N)(=O)=O)c1C1=NOCCO1`, the melting point fell in the range of 126 to 130 °C. In the case of `CCOC(=O)C1=C(c2cccc(Cl)c2Cl)N(C(=O)OCC)C(=O)NC1C` (stereo unspecified) it was 140 to 141 °C; in that of `COC(=O)c1ccc2cc(CCc3cc4c(C(=O)OC)cccc4o3)oc2c1`, 175 to 177 °C. In the case of `Cc1sc(-c2ccncc2)nc1CCOc1ccc(C[C@H](Nc2ccccc2C(=O)c2ccccc2)C(=O)O)cc1` it was 155 to 158 °C. As for `Cc1cc(=O)c(-c2ccc(Cl)cc2)c(C)n1C`, the melting point is 221 to 222 °C. In the case of `O=C(O)Cc1ccc(-c2ccc(C(CC3CCOCC3)c3ccc(S(=O)(=O)C4CC4)cc3)[nH]2)nc1` (stereo unspecified), the melting point was 124 to 127 °C. In the case of `C[C@@H](O[C@H]1CCCN(Cc2n[nH]c(=O)[nH]2)[C@H]1c1ccccc1)c1cccc(Br)c1` it was 165 °C; in that of `Clc1cc(N2CCC(N3CCN(c4cccc5[nH]ccc45)CC3)CC2)c2ncccc2c1`, 224 °C. The compound `c1ccc(N2CCN(CCc3ccc4ccccc4n3)CC2)cc1` had a melting point of 79 °C. In the case of `CCOC(=O)c1cc2cccc(NS(=O)(=O)c3ccc(Cl)s3)c2[nH]1` it was 180 to 181 °C. `COC(=O)c1cc2ccccc2nc1C(=O)OC` displayed a melting point of 105 to 106 °C.

`CC(=O)NCCCC(=O)NCCCC(=O)c1ccc(Cl)cc1CCC(=O)O` returned a melting point of 108 °C.

`O=C(CCCN1CC=C(c2cccc3[nH]ccc23)CC1)c1ccc(F)cc1` registered a melting point of 155 °C. In the case of `CCCn1nc2c(N)nc3ccccc3c2c1CC(C)(C)O` it was 188 to 190 °C; in that of `CC1(C)C=Cc2cc(C(=O)NCCN3C(=O)c4ccccc4C3=O)ccc2O1`, 183 to 185 °C.

Regarding `COc1cc(C)c(N2C(=O)CS/C2=N/N=C\c2ccc(-c3ncn(-c4ccc(OC(F)(F)F)cc4)n3)cc2)c(C)c1`, the melting point lay in the range of 188 to 190 °C. For `CCOC(=O)N1Cc2sc3ncn(CCCl)c(=O)c3c2C1` the value was 169 to 171 °C; for `CC(=O)NC[C@H]1CN(c2ccc(-n3nccc3-c3ccc(C)cc3)c(F)c2)C(=O)O1`, 89.5 to 91.9 °C; for `COc1ccc(C=CC(=O)c2ccc(OCC3CO3)cc2)cc1` (stereo unspecified), 85 to 87 °C. In the case of `O=S(=O)(c1ccc(Br)cc1)N1CCN(c2ccncc2)CC1` it was 199 to 200 °C; in that of `Nc1nc(Cl)nc2ccccc12`, 232 °C. In the case of `Cc1cccc(-c2nc(C(C)C)[nH]c2-c2cccc(-c3ccc(C(=O)N4CCS(=O)CC4)cc3)c2)n1` it was 136 to 140 °C; in that of `NC(=O)c1cnc2ccc(Cl)cc2c1Cl`, 209 °C.

In turn, `CC1(C)Nc2ccc3c(c2N1)C(=O)c1ccccc1C3=O` displayed a melting point of 235 to 237 °C.

Consider `COc1nc2cc(Br)cc(C=O)c2nc1OC`, for which the melting point lay within 179 to 182 °C.

In turn, `CC(C)(C)n1nc2c(=O)[nH]c3ccccc3c2c1CO` returned a melting point of 295 to 297 °C. In the case of `COc1ccc(C(=O)C(=O)c2ccccn2)cc1` it was 97 to 98 °C; in that of `CCc1cc2cc([N+](=O)[O-])ccc2o1`, 86 °C; in that of `CCC(CC)NC(=O)c1ccc(-c2scc(-c3ccccc3Cl)c2CC(=O)NC(=N)NCCCO)cc1`, 109 to 110 °C. For `CC(C)Cn1c(CNC(=O)OC(C)(C)C)c(-c2ccccc2)c2cc(-c3nc(C#N)cs3)ccc2c1=O` the value was 209 to 211 °C; for `Cc1nc2ncnn2c2c1CCN2C1CCCCCC1`, 197 to 198 °C; for `COc1ccc2c(c1)c(Cc1nc3c(F)c(F)cc(F)c3s1)cn2CC(=O)O`, 165 to 167 °C.

`COc1ccc(S(=O)(=O)c2cnc(C)nc2Nc2c(C)cc(C)cc2C)cc1` displayed a melting point of 153 to 155 °C. In the case of `CCCCCC1OC12CCC(Nc1ncnc(CC)c1Cl)CC2` (stereo unspecified) it was 41 to 42 °C; in that of `CCCCCCCCCCCCCCCCC(O)CN(C)CCO` (stereo unspecified), 39 to 40.6 °C; in that of `O=C(NCCCCCCNC(=O)NS(=O)(=O)c1ccc(Br)o1)NS(=O)(=O)c1ccc(Br)o1`, 98 to 99 °C.

`Fc1cccc(Cl)c1-c1cc(-c2ccc(Cl)cc2)nc2ncnn12` showed a melting point of 238 to 239 °C. For `Cc1cc(Cl)ccc1-c1cc(F)cc2c1NC(CN)CO2` (stereo unspecified) the value was 90 °C. As for `C#Cc1ccc2c(c1)-c1c3c(c4c([nH]c5ccccc54)c1C2)C(=O)NC3`, the melting point is more than 300 °C. For `O=C(O)C1c2cc(Br)ccc2COc2ccc(Br)cc21` (stereo unspecified) the value was 179 to 182 °C; for `CN(C=O)C1(C(=O)O)CC1`, 210 °C; for `COC(=O)c1ccc(N)cn1`, 147 to 150 °C. In the case of `CCCc1nc2c(N)nc(C)c(C)c2n1CCCCN(O)C(=O)c1ccccc1` it was 132 to 134 °C. For the compound `COC(=O)c1ccccc1S(=O)(=O)NC(=O)Nc1ncc(Cl)cn1`, the melting point fell in the range of 217 to 221 °C.

`CC(C#Cc1ccc(C#N)cc1)N1C(=O)c2ccccc2C1=O` (stereo unspecified): the melting point was 138 to 142 °C. In the case of `Cc1ccc([N+](=O)[O-])cc1-c1ccccc1` it was 69 to 71 °C; in that of `O=C(CO)c1c[nH]c2cc(OCc3ccccc3)ccc12`, 194 to 195 °C; in that of `CC(C)(C(=O)c1cccs1)C(=O)c1cccs1`, 153 to 156 °C. Regarding `COc1ccc(-c2nc3cccnc3n2CC(=O)N2CCCCC2)cc1`, the melting point was in the range of 153 to 155 °C.
